Source: US10323022B2, “Pyrrolidinyl urea, pyrrolidinyl thiourea and pyrrolidinyl guanidine compounds as TrkA kinase inhibitors” (Array BioPharma Inc., priority 2011, dated 2019)

target: TrkA (Homo sapiens (Human), UniProt P04629); test: TrkA Omnia Assay; format: biochemical; settings: averaged IC50; 20 nM enzyme, 500 μM ATP, 10 μM peptide substrate
How it was run: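 Recombinant TrkA (20 nM) preincubated 10 min at ambient temperature with compound, then Omnia Tyr Peptide #4 (10 μM) and ATP (500 μM) added in 25 mM MOPS pH 7.5, 5 mM MgCl2, 0.005% Triton X-100. Fluorescence (ex 360/em 485 nm) followed continuously for 70 min; IC50 from initial rates by 4- or 5-parameter logistic fit.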

Chain of TrkA (P04629 33-796): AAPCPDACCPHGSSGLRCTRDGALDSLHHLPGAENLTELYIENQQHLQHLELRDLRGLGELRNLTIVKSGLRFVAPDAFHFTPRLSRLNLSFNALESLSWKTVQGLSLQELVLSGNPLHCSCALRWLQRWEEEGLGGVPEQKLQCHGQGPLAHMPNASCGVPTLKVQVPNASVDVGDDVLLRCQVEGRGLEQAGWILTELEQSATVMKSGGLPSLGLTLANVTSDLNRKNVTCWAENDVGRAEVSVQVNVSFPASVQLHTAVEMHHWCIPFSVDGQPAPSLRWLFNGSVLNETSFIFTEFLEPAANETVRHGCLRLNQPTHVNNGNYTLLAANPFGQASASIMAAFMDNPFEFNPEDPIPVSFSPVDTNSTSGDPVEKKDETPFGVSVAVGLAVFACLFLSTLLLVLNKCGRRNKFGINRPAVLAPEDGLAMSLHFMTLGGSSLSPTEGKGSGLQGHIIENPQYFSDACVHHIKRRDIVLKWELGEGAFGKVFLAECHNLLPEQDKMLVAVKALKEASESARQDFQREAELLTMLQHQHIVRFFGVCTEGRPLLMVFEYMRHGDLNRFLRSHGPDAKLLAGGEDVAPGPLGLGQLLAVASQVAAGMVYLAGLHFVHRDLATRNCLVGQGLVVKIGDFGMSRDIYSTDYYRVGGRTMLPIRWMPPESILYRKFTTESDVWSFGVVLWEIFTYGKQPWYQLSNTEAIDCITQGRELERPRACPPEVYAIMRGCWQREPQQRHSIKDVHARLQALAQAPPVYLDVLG

IC50 [nM]	Structure (SMILES)
< 100	COCCN1C[C@@H](NC(=O)Nc2c(C)c(OCC(F)(F)F)nn2-c2ccccc2)[C@H](c2ccc(F)c(F)c2)C1 [Example 475, 1-((3S,4R)-4-(3,4-difluorophenyl)-1-(2-methoxyethyl)pyrrolidin-3-yl)-3-(4-methyl-1-phenyl-3-(2,2,2-trifluoroethoxy)-1H-pyrazol-5-yl)urea]
< 100	COCCN1C[C@@H](NC(=O)Nc2c(C)c(OCC(F)(F)F)nn2-c2ccccc2)[C@H](c2ccc(F)cc2)C1 [Example 476, 1-((3S,4R)-4-(4-fluorophenyl)-1-(2-methoxyethyl)pyrrolidin-3-yl)-3-(4-methyl-1-phenyl-3-(2,2,2-trifluoroethoxy)-1H-pyrazol-5-yl)urea]
< 100	COCCN1C[C@@H](NC(=O)Nc2c(C)c(OCC(F)(F)F)nn2-c2ccccc2)[C@H](c2cc(F)cc(F)c2)C1 [Example 477, 1-((3S,4R)-4-(3,5-difluorophenyvl)-1-(2-methoxyethyl)pyrrolidin-3-yl)-3-(4-methyl-1-phenyl-3-(2,2,2-trifluoroethoxy)-1H-pyrazol-5-yl)urea]
< 100	COCCN1C[C@@H](NC(=O)Nc2c(C)c(OCC(F)F)nn2-c2ccccc2)[C@H](c2ccc(F)c(F)c2)C1 [Example 478, 1-(3-(2,2-difluoroethoxy)-4-methyl-1-phenyl-1H-pyrazol-5-yl)-3-((3 S,4R)-4-(3,4-difluorophenyl)-1-(2-methoxyethyl)pyrrolidin-3-yl)urea]
< 100	COCCN1C[C@@H](NC(=O)Nc2c(Cl)c(OCC(F)(F)F)nn2-c2ccccc2)[C@H](c2ccc(F)c(F)c2)C1 [Example 479, 1-(4-chloro-1-phenyl-3-(2,2,2-trifluoroethoxy)-1H-pyrazol-5-yl)-3-((3 S,4R)-4-(3,4-difluorophenyl)-1-(2-methoxyethyl)pyrrolidin-3-yl)urea]
< 100	COCCN1C[C@@H](NC(=O)Nc2c(Cl)c(-c3ccccn3)nn2-c2ccccc2)[C@H](c2ccc(F)c(F)c2)C1 [Example 480, 1-(4-chloro-1-phenyl-3-(pyridin-2-yl)-1H-pyrazol-5-yl)-3-((3 S,4R)-4-(3,4-difluorophenyl)-1-(2-methoxyethyl)pyrrolidin-3-yl)urea]
< 100	COCCN1C[C@@H](NC(=O)Nc2c(Cl)c(-c3ccncc3)nn2-c2ccccc2)[C@H](c2ccc(F)c(F)c2)C1 [Example 481, 1-(4-chloro-1-phenyl-3-(pyridin-4-yl)-1H-pyrazol-5-yl)-3-((3 S,4R)-4-(3,4-difluorophenyl)-1-(2-methoxyethyl)pyrrolidin-3-yl)urea]
< 100	COCCN1C[C@@H](NC(=O)Nc2c(Cl)c(-c3cccnc3)nn2-c2ccccc2)[C@H](c2ccc(F)c(F)c2)C1 [Example 482, 1-(4-chloro-1-phenyl-3-(pyridin-3-yl)-1H-pyrazol-5-yl)-3-((3S,4R)-4-(3,4-difluorophenyl)-1-(2-methoxyethyl)pyrrolidin-3-yl)urea]
< 100	COCCN1C[C@@H](NC(=O)Nc2c(Br)c(-c3cccnc3)nn2-c2ccccc2)[C@H](c2ccc(F)c(F)c2)C1 [Example 483, 1-(4-bromo-1-phenyl-3-(pyridin-3-yl)-1H-pyrazol-5-yl)-3-((3 S,4R)-4-(3,4-difluorophenyl)-1-(2-methoxyethyl)pyrrolidin-3-yl)urea]
< 100	COCCN1C[C@@H](NC(=O)Nc2c(Br)c(-c3ccccn3)nn2-c2ccccc2)[C@H](c2ccc(F)c(F)c2)C1 [Example 484, 1-(4-bromo-1-phenyl-3-(pyridin-2-yl)-1H-pyrazol-5-yl)-3-((3S,4R)-4-(3,4-difluorophenyl)-1-(2-methoxyethyl)pyrrolidin-3-yl)urea]
100 to 1000	COCCN1C[C@@H](NC(=O)Nc2c(Cl)c(-c3ccccc3)nn2-c2cccnc2)[C@H](c2ccc(F)c(F)c2)C1 [Example 485, 1-(4-chloro-3-phenyl-1-(pyridin-3-yl)-1H-pyrazol-5-yl)-3-((3S,4R)-4-(3,4-difluorophenyl)-1-(2-methoxyethyl)pyrrolidin-3-yl)urea]
< 100	COCCN1C[C@@H](NC(=O)Nc2c(C)c(-c3cccnc3)nn2-c2ccccc2)[C@H](c2ccc(F)c(F)c2)C1 [Example 486, 1-((3S,4R)-4-(3,4-difluorophenyl)-1-(2-methoxyethyl)pyrrolidin-3-yl)-3-(4-methyl-1-phenyl-3-(pyridin-3-yl)-1H-pyrazol-5-yl)urea]
< 100	COCCN1C[C@@H](NC(=O)Nc2c(C)c(-c3ccncc3)nn2-c2ccccc2)[C@H](c2ccc(F)c(F)c2)C1 [Example 487, 1-((3S,4R)-4-(3,4-difluorophenyl)-1-(2-methoxyethyl)pyrrolidin-3-yl)-3-(4-methyl-1-phenyl-3-(pyridin-4-yl)-1H-pyrazol-5-yl)urea]
< 100	COCCN1C[C@@H](NC(=O)Nc2c(C)c(-c3ccccn3)nn2-c2ccccc2)[C@H](c2ccc(F)c(F)c2)C1 [Example 488, 1-((3S,4R)-4-(3,4-difluorophenyl)-1-(2-methoxyethyl)pyrrolidin-3-yl)-3-(4-methyl-1-phenyl-3-(pyridin-2-yl)-1H-pyrazol-5-yl)urea]
< 100	COCCN1C[C@@H](NC(=O)Nc2c(C)c(-c3cncc(F)c3)nn2-c2ccccc2)[C@H](c2ccc(F)c(F)c2)C1 [Example 489, 1-((3S,4R)-4-(3,4-difluorophenyl)-1-(2-methoxyethyl)pyrrolidin-3-yl)-3-(3-(5-fluoropyridin-3-yl)-4-methyl-1-phenyl-1H-pyrazol-5-yl)urea]
< 100	COCCN1C[C@@H](NC(=O)Nc2c(C)c(-c3cncc(F)c3)nn2-c2cccnc2)[C@H](c2ccc(F)c(F)c2)C1 [Example 490, 1-((3S,4R)-4-(3,4-difluorophenyl)-1-(2-methoxyethyl)pyrrolidin-3-yl)-3-(3-(5-fluoropyridin-3-yl)-4-methyl-1-(pyridin-3-yl)-1H-pyrazol-5-yl)urea]
< 100	COCCN1C[C@@H](NC(=O)Nc2c(C)c(-c3ccn(C)n3)nn2-c2ccccc2)[C@H](c2ccc(F)c(F)c2)C1 [Example 491, 1-((3S,4R)-4-(3,4-difluorophenyl)-1-(2-methoxyethyl)pyrrolidin-3-yl)-3-(1′,4-dimethyl-1-phenyl-1H,1′H-[3,3′-bipyrazol]-5-yl)urea]
< 100	COCCN1C[C@@H](NC(=O)Nc2c(C)c(-c3ccn(C)n3)nn2-c2ccccc2)[C@H](c2ccc(F)cc2)C1 [Example 492, 1-(1′,4-dimethyl-1-phenyl-1H, 1′H-[3,3′-bipyrazol]-5-yl)-3-((3S,4R)-4-(4-fluorophenyl)-1-(2-methoxyethyl)pyrrolidin-3-yl)urea]
< 100	COCCN1C[C@@H](NC(=O)Nc2c(C)c(-c3ccn(C)n3)nn2-c2ccccc2)[C@H](c2cc(F)cc(F)c2)C1 [Example 493, 1-((3S,4R)-4-(3,5-difluorophenyvl)-1-(2-methoxyethyl)pyrrolidin-3-yl)-3-(1′,4-dimethyl-1-phenyl-1H,1′H-[3,3′-bipyrazol]-5-yl)urea]
< 100	COCCN1C[C@@H](NC(=O)Nc2c(C)c(-c3ccnn3C)nn2-c2ccccc2)[C@H](c2ccc(F)c(F)c2)C1 [Example 494, 1-((3S,4R)-4-(3,4-difluorophenyl)-1-(2-methoxyethyl)pyrrolidin-3-yl)-3-(2′,4-dimethyl-1-phenyl-1H,2′H-[3,3′-bipyrazol]-5-yl)urea]
